Data taken from PMC9848269, “Investigation of novel alkyl/benzyl (4-sulphamoylphenyl)carbamimidothioates as carbonic anhydrase inhibitors” (Journal of Enzyme Inhibition and Medicinal Chemistry, 2023).
Where two headings read alike, the source gives them in different places.

Columns and labels:
[1] = target: T1, hCA II (Homo sapiens, UniProt P00918); assay: biochemical; set-up: stopped-flow CO2 hydration assay, phenol red 557 nm, Hepes pH 7.5, recombinant alpha-CA, 6 h preincubation
T1 construct: gene CA2; recombinant, obtained in-house; cytosolic
Description: (§1) An applied photophysics stopped-flow instrument has been used for assaying the CA-catalysed CO2 hydration activity. Phenol red (at a concentration of 0.2 mM) was used as indicator, working at the absorbance maximum of 557 nm, with 20 mM Hepes (pH 7.5) as buffer for α-CAs or 20 mM TRIS (pH 8.4) as buffer for β-CAs, and 20 mM Na2SO4 (for maintaining constant the ionic strength), following the initial rates of the CA-catalysed CO2 hydration reaction for a period of 10 – 100 s. The CO2 concentrations ranged from 1.7 to 17 mM for the determination of the kinetic parameters and inhibition constants. For each inhibitor, at least six traces of the initial 5 – 10% of the reaction have been used for determining the initial velocity. The uncatalysed rates were determined in the same manner and subtracted from the total observed rates. Stock solutions of inhibitor (0.1 mM) were prepared in distilled – deionised water, and dilutions up to 0.01 nM were done thereafter with the assay buffer. Inhibitor and enzyme solutions were preincubated together for 6 h at room temperature prior to assay in order to allow for the formation of the E – I complex. The inhibition constants were obtained by nonlinear least-squares methods using PRISM 3 and the Cheng–Prusoff equation, as reported earlier[12]^,[13]^,[20]^,[21], and represent the mean from at least three different determinations. All CA isoforms were recombinant ones obtained in-house as reported earlier[22]^,[23] and their concentrations in the assay system ranged between 7.6–12.5 nM.

[2] = target: T2, hCA XIII (Homo sapiens, UniProt Q8N1Q1); assay: biochemical; set-up: stopped-flow CO2 hydration assay, phenol red 557 nm, Hepes pH 7.5, recombinant alpha-CA, 6 h preincubation
T2 construct: gene CA13; recombinant, obtained in-house; cytosolic
Description: as §1

[3] = target: T3, hCA I (Homo sapiens, UniProt P00915); assay: biochemical; set-up: stopped-flow CO2 hydration assay, phenol red 557 nm, Hepes pH 7.5, recombinant alpha-CA, 6 h preincubation
T3 construct: gene CA1; recombinant, obtained in-house; cytosolic
Description: as §1

[4] = target: T4, hCA VII (Homo sapiens, UniProt P43166); assay: biochemical; set-up: stopped-flow CO2 hydration assay, phenol red 557 nm, Hepes pH 7.5, recombinant alpha-CA, 6 h preincubation
T4 construct: gene CA7; recombinant, obtained in-house; cytosolic
Description: as §1

[5] = target: T5, StCA2 (Salmonella enterica, UniProt O30898); set-up: stopped-flow CO2 hydration assay, phenol red 557 nm, TRIS pH 8.4, recombinant beta-CA, 6 h preincubation; settings: inhibitor
T5 construct: gene mig-5; recombinant, obtained in-house; beta-class CA
T5 sequence (O30898 41-246): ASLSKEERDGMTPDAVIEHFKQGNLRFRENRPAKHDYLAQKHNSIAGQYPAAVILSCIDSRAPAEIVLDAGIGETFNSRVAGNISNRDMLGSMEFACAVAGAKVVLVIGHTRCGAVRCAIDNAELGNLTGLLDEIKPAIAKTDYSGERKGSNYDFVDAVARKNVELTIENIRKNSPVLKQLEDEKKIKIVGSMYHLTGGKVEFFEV
Description: as §1, with “For each inhibitor, at least six traces of the initial 5 – 10% of the reaction have been used for determining the initial velocity.” left out

[6] = target: T1, hCA II; assay: biochemical; set-up: stopped-flow CO2 hydration assay, phenol red absorbance at 557 nm, Ki via Cheng-Prusoff
Description: as §1, with “nM. Sulphonamides 8a–o incorporating carbamimidothioate moieties have been tested as inhibitors of four human (h) CA isoforms, the cytosolic hCA I, II, VII and XIII, as well as the bacterial β-CAs from Mammaliicoccus (Staphylococcus) sciuri[14] and Salmonella enterica (serovar Typhimurium), StCA1 and StCA2[15]. It should be mentioned that the first bacterial enzyme, MscCA, was originally reported by us as Staphylococcus aureus β-CA, SauCA based on a genomic sequence annotated in the data bases in 2017[14]. […] In 2020, the species was renamed as belonging to a new genus, as Mammaliicoccus sciuri. The hCAs included in the study were the ubiquitous hCA I and II, as well as hCA VII and XIII which are found in fewer tissues compared to hCA I and II, and are involved in several pathologies in the CNS (hCA VII) or reproductive tract (hCA XIII)[17]^,[18].” for “nM.”

[7] = target: T2, hCA XIII; assay: biochemical; set-up: stopped-flow CO2 hydration assay, phenol red absorbance at 557 nm, Ki via Cheng-Prusoff
Description: as §1, with “nM. Sulphonamides 8a–o incorporating carbamimidothioate moieties have been tested as inhibitors of four human (h) CA isoforms, the cytosolic hCA I, II, VII and XIII, as well as the bacterial β-CAs from Mammaliicoccus (Staphylococcus) sciuri[14] and Salmonella enterica (serovar Typhimurium), StCA1 and StCA2[15]. It should be mentioned that the first bacterial enzyme, MscCA, was originally reported by us as Staphylococcus aureus β-CA, SauCA based on a genomic sequence annotated in the data bases in 2017[14]. […] In 2020, the species was renamed as belonging to a new genus, as Mammaliicoccus sciuri. The hCAs included in the study were the ubiquitous hCA I and II, as well as hCA VII and XIII which are found in fewer tissues compared to hCA I and II, and are involved in several pathologies in the CNS (hCA VII) or reproductive tract (hCA XIII)[17]^,[18].” for “nM.”

[8] = target: T3, hCA I; assay: biochemical; set-up: stopped-flow CO2 hydration assay, phenol red absorbance at 557 nm, Ki via Cheng-Prusoff
Description: as §1, with “nM. Sulphonamides 8a–o incorporating carbamimidothioate moieties have been tested as inhibitors of four human (h) CA isoforms, the cytosolic hCA I, II, VII and XIII, as well as the bacterial β-CAs from Mammaliicoccus (Staphylococcus) sciuri[14] and Salmonella enterica (serovar Typhimurium), StCA1 and StCA2[15]. It should be mentioned that the first bacterial enzyme, MscCA, was originally reported by us as Staphylococcus aureus β-CA, SauCA based on a genomic sequence annotated in the data bases in 2017[14]. […] In 2020, the species was renamed as belonging to a new genus, as Mammaliicoccus sciuri. The hCAs included in the study were the ubiquitous hCA I and II, as well as hCA VII and XIII which are found in fewer tissues compared to hCA I and II, and are involved in several pathologies in the CNS (hCA VII) or reproductive tract (hCA XIII)[17]^,[18].” for “nM.”

[9] = target: T4, hCA VII; assay: biochemical; set-up: stopped-flow CO2 hydration assay, phenol red absorbance at 557 nm, Ki via Cheng-Prusoff
Description: as §1, with “nM. Sulphonamides 8a–o incorporating carbamimidothioate moieties have been tested as inhibitors of four human (h) CA isoforms, the cytosolic hCA I, II, VII and XIII, as well as the bacterial β-CAs from Mammaliicoccus (Staphylococcus) sciuri[14] and Salmonella enterica (serovar Typhimurium), StCA1 and StCA2[15]. It should be mentioned that the first bacterial enzyme, MscCA, was originally reported by us as Staphylococcus aureus β-CA, SauCA based on a genomic sequence annotated in the data bases in 2017[14]. […] In 2020, the species was renamed as belonging to a new genus, as Mammaliicoccus sciuri. The hCAs included in the study were the ubiquitous hCA I and II, as well as hCA VII and XIII which are found in fewer tissues compared to hCA I and II, and are involved in several pathologies in the CNS (hCA VII) or reproductive tract (hCA XIII)[17]^,[18].” for “nM.”

[10] = target: T5, StCA2; set-up: stopped-flow CO2 hydration assay, phenol red absorbance at 557 nm, Ki via Cheng-Prusoff; settings: inhibitor
Description: as §1, with “All CA isoforms were recombinant ones obtained in-house as reported earlier[22]^,[23] and their concentrations in the assay system ranged between 7.6–12.5 nM.” left out

[11] = target: T5, StCA2; assay: stopped-flow CO2 hydration; assay type: biochemical; settings: 20 mM TRIS pH 8.4, 20 mM Na2SO4, CO2 1.7-17 mM; 6 h preincubation at room temperature
Excerpt: stopped-flow CO2 hydration on StCA2

[12] = target: T2, hCA XIII; assay: stopped-flow CO2 hydration; assay type: biochemical
Excerpt: stopped-flow CO2 hydration on hCA XIII

[13] = target: T4, hCA VII; assay: stopped-flow CO2 hydration; assay type: biochemical
Excerpt: stopped-flow CO2 hydration on hCA VII

[14] = target: T1, hCA II; assay: stopped-flow CO2 hydration; assay type: biochemical
Excerpt: stopped-flow CO2 hydration on hCA II

[15] = target: T6, StCA1; assay: stopped-flow CO2 hydration; assay type: biochemical, Salmonella enterica subsp. enterica serovar Typhimurium; settings: 20 mM TRIS pH 8.4, 20 mM Na2SO4, CO2 1.7-17 mM; 6 h preincubation at room temperature
T6 construct: recombinant, obtained in-house; beta-class CA
Excerpt: stopped-flow CO2 hydration on StCA1

[16] = target: T3, hCA I; assay: stopped-flow CO2 hydration; assay type: biochemical
Excerpt: stopped-flow CO2 hydration on hCA I

T2 sequence (Q8N1Q1 whole entry): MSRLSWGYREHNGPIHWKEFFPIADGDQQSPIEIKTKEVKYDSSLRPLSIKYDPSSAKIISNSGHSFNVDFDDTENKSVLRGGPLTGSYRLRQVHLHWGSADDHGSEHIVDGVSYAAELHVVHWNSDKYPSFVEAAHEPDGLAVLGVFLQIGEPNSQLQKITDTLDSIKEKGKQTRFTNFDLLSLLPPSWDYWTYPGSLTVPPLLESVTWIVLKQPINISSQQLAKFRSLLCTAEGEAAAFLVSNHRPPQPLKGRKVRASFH
T4 sequence (P43166 whole entry): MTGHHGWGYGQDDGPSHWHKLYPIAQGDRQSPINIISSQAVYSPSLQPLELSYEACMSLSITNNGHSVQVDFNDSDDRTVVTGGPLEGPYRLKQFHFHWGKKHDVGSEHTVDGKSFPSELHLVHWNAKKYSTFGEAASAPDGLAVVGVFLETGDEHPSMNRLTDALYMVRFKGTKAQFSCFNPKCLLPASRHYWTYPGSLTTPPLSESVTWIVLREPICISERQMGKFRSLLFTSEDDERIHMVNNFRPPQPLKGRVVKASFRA
T3 sequence (P00915 2-261): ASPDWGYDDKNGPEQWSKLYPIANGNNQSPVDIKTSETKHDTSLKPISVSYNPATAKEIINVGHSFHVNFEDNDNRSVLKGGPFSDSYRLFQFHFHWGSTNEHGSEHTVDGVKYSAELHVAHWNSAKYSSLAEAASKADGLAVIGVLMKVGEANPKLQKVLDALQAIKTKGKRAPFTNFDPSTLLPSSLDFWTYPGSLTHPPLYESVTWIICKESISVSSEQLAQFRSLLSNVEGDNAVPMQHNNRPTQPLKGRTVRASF

Row | Structure (SMILES) | Ki [1] | Ki [2] | Ki [3] | Ki [4] | Ki [5] | also measured
1 | NC(=Nc1ccc(S(N)(=O)=O)cc1)SCc1ccc([N+](=O)[O-])cc1 [8k] | 9 nM | 856 nM | 77.2 nM | 2.6 nM | 6850 nM | –
2 | CCCCCCSC(=N)Nc1ccc(S(N)(=O)=O)cc1 [8c, Hexyl (4-sulphamoylphenyl)carbamimidothioate] | – | – | – | – | – | Ki [6]: 2.5 nM; Ki [7]: 92.2 nM; Ki [8]: 78.8 nM; Ki [9]: 2.3 nM; Ki [10]: 898 nM
3 | CCCCSC(N)=Nc1ccc(S(N)(=O)=O)cc1 [8b, Butyl (4-sulphamoylphenyl)carbamimidothioate] | 73.6 nM | – | 76.4 nM | 13.8 nM | – | Ki [11]: 348 nM
4 | NC(=Nc1ccc(S(N)(=O)=O)cc1)SCc1cc(F)cc(F)c1 [8m, 3,5-Difluorobenzyl (4-sulphamoylphenyl)carbamimidothioate] | – | – | 82.2 nM | – | 6310 nM | Ki [12]: 75.6 nM; Ki [13]: 1.2 nM; Ki [14]: 1.7 nM
5 | CSC(N)=Nc1ccc(S(N)(=O)=O)cc1 [8a, Methyl (4-sulphamoylphenyl)carbamimidothioate] | 85.8 nM | – | 90.4 nM | 18.9 nM | – | Ki [11]: 270 nM; Ki [12]: 97.5 nM
6 | CCCCCCCSC(N)=Nc1ccc(S(N)(=O)=O)cc1 [8d, Heptyl (4-sulphamoylphenyl)carbamimidothioate] | 9.3 nM | 926 nM | – | 2.7 nM | 955 nM | Ki [15]: 71.3 nM
7 | N#Cc1ccc(CSC(N)=Nc2ccc(S(N)(=O)=O)cc2)cc1 [8j, 4-Cyanobenzyl (4-sulphamoylphenyl)carbamimidothioate] | 21.5 nM | 302 nM | 82.8 nM | – | 5190 nM | Ki [15]: 55.7 nM; Ki [13]: 1.5 nM
8 | NC(=Nc1ccc(S(N)(=O)=O)cc1)SCc1ccc(Br)cc1 [8i, 4-Bromobenzyl (4-sulphamoylphenyl)carbamimidothioate] | 29.9 nM | 907 nM | – | 2.1 nM | 9700 nM | Ki [16]: 60 nM
9 | C=CCSC(N)=Nc1ccc(S(N)(=O)=O)cc1 [8e, Allyl (4-sulphamoylphenyl)carbamimidothioate] | – | 814 nM | – | – | 4990 nM | Ki [16]: 38.5 nM; Ki [13]: 1.8 nM; Ki [14]: 8.2 nM
10 | C#CCSC(N)=Nc1ccc(S(N)(=O)=O)cc1 [8f, Prop-2-yn-1-yl (4-sulphamoylphenyl)carbamimidothioate] | – | 352 nM | 92.5 nM | 5.5 nM | 7120 nM | Ki [14]: 6.9 nM
11 | NC(=Nc1ccc(S(N)(=O)=O)cc1)SCc1ccc(Cl)cc1 [8h, 4-Chlorobenzyl (4-sulphamoylphenyl)carbamimidothioate] | 34.4 nM | 892 nM | 73.2 nM | 2 nM | 6680 nM | –
12 | NC(=Nc1ccc(S(N)(=O)=O)cc1)SCc1ccc(C(F)(F)F)cc1 [8l, 4-(Trifluoromethyl)benzyl (4-sulphamoylphenyl)carbamimidothioate] | 8.9 nM | – | 73.5 nM | 2.3 nM | 5890 nM | Ki [12]: 80.5 nM
13 | NC(=Nc1ccc(S(N)(=O)=O)cc1)SCc1ccccc1 [8g, Benzyl (4-sulphamoylphenyl)carbamimidothioate] | – | 491 nM | 68.1 nM | 2.4 nM | – | Ki [15]: 52.2 nM; Ki [11]: 902 nM
